Where two headings read alike, the source gives them in different places.
What was measured:
[1] = biological target: CYP2C9 (Homo sapiens (Human), UniProt P11712); experiment: CYP2C9 inhibition with and without preincubation; assay type: in vitro ADME; settings: for inhibition at 5 μM: human, 5 μM (precipitation at 15 μM), read-out: % Inh, inhibition at 5 μM reported instead
Protocol: (§1) Assessment of certain in vitro ADME (absorption, distribution, metabolism, and excretion) parameters for Compound I was conducted by BioFocus (Saffron Walden, UK). The results reveal that Compound I is cleared rapidly by human hepatocytes and that it has a reduced liability for time-dependent cytochrome P450 inhibition.

[2] = biological target: CYP3A4 (Homo sapiens (Human), UniProt P08684); experiment: CYP3A4 inhibition with and without preincubation; assay type: in vitro ADME; settings: for inhibition at 15 µM: human, read-out: 15 μM % Inh
Protocol: as §1

[3] = test system: non-mutant kinases; experiment: KinomeScan selectivity scores; assay type: binding; settings: for number of individual kinase hits, S(1): % Ctrl <1; for number of individual kinase hits, S(10): % Ctrl <10; for number of individual kinase hits, S(35): % Ctrl <35
Protocol: Kinase enzyme binding activities of compounds disclosed herein may be determined using a proprietary assay which measures active site-directed competition binding to an immobilized ligand (Fabian, M. A. et al., Nature Biotechnol., 2005, 23:329-336). These assays may be conducted by DiscoverX (formerly Ambit; San Diego, Calif.). The percentage inhibition produced by incubation with a test compound may be calculated relative to the non-inhibited control.

[4] = test system: d-U937 cells; experiment: Accumulation of β catenin in d-U937 cells; assay type: cell-based, human; settings: 1 μg/mL; normalised to Reference compound at 1 μg/mL
Protocol: U937 cells, a human monocytic cell line, are differentiated into macrophage-type cells by incubation with PMA (100 ng/mL) for between 48 to 72 hr. The cells are then incubated with either final concentrations of test compound or vehicle for 18 hr. The induction of β-catenin by the test compound is stopped by replacing the media with 4% formaldehyde solution. Endogenous […] is neutralised by incubating with quenching buffer (100 μL, 0.1% sodium azide, 1% H2O2 in PBS with 0.05% Tween-20) for 20 min. The cells are washed with washing buffer (200 μL; PBS containing 0.05% Tween-20) and incubated with blocking solution (200 μL; 5% milk in PBS) for 1 hr, re-washed with washing buffer (200 μL) and then incubated overnight with anti-β-catenin antibody solution (50 μL) in 1% BSA/PBS (BD, Oxford, UK).
After washing with washing buffer (3×200 μL; PBS containing 0.05% Tween-20), cells are incubated with a HRP-conjugated secondary antibody solution (100 μL) in 1% BSA/PBS (Dako, Cambridge, UK) and the resultant signal is determined colourimetrically (OD: 450 nm with a reference wavelength of 655 nm) using TMB substrate (50 μL; R&D Systems, Abingdon, UK). This reaction is stopped by addition of 1N H2SO4 solution (50 μL). Cells are then washed with washing buffer and 2% crystal violet solution (50 μL) is applied for 30 min. After washing with washing buffer (3×200 μL), 1% SDS (100 μL) is added to each well and the plates are shaken lightly for 1 hr prior to measuring the absorbance at 595 nm (Varioskan® Flash, Thermo-Fisher Scientific).
The measured OD450-655 readings are corrected for cell number by dividing the OD450-655 by the OD595 readings.

[5] = Hydrolytic stability study; assay type: physicochemical; settings: DMSO and water (3:1), 1 mg/mL
Protocol: Chemical stability of Compound I was assessed in a mixture of DMSO and water (3:1) at a test compound concentration of 1 mg/mL
Sample Preparation • A 1.0 mg sample of test compound was dissolved in 750 μL of DMSO. Water (250 μL) was added slowly, ensuring no precipitation occurred.
Recording Stability • A 50 μL aliquot of the test solution was removed and analysed in duplicate by 5 μL HPLC injections. The peak area for the test compound was recorded following manual integration of the corresponding UV trace. • The test solution was heated to 60° C., with stirring, and 50 μL aliquots removed for HPLC analysis at 5 and 24 h timepoints.

CYP3A4, sequence (P08684 whole entry): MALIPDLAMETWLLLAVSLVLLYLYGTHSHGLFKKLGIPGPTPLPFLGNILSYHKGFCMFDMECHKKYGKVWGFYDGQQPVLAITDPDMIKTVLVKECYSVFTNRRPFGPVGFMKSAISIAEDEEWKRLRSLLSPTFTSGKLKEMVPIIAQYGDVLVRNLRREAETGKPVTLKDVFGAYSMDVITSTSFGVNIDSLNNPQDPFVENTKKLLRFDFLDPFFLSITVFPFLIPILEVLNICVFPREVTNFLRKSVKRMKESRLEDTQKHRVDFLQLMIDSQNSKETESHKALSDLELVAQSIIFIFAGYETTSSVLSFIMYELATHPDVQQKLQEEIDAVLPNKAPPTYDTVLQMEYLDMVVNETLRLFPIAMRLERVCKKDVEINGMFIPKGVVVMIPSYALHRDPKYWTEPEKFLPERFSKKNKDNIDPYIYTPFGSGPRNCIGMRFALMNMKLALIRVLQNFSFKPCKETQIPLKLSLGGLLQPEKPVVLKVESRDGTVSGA
CYP2C9, sequence (P11712 whole entry): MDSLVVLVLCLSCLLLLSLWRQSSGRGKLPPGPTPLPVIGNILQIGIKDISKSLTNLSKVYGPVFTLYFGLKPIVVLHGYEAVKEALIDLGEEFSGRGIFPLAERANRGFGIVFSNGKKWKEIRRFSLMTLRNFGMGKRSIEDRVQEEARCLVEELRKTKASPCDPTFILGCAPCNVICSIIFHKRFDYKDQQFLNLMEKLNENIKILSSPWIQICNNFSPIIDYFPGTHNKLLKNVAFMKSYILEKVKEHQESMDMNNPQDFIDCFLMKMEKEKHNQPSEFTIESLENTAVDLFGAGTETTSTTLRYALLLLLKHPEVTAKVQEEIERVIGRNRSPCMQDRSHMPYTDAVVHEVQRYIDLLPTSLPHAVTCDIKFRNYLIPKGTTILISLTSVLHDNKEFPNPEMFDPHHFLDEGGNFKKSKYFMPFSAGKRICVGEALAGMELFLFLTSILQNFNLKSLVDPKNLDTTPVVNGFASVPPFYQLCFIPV

## C#CC(C)(C)c1cc(NC(=O)Nc2ccc(Oc3ccnc(Nc4cc(C)c5[nH]ncc5c4)n3)c3ccccc23)n(-c2ccc(C)cc2)n1 [Ref Cpd A, 1-(4-((2-((7-methyl-1H-indazol-5-yl)amino)pyrimidin-4-yl)oxy)-naphthalen-1-yl)-3-(3-(2-methylbut-3-yn-2-yl)-1-(p-tolyl)-1H-pyrazol-5-yl)urea, reference compound]
[1]; CYP2C9, 0 min preincubation
  IC50: > 5000 nM
  inhibition at 5 μM: 31%
[1]; CYP2C9, 30 min preincubation
  IC50: 1400 nM
  inhibition at 5 μM: 66%
[2]; CYP3A4, 0 min preincubation
  IC50: > 15000 nM
  inhibition at 15 µM: 41%
[2]; CYP3A4, 30 min preincubation
  IC50: 400 nM
  inhibition at 15 µM: 92%

## COCC(=O)Nc1cc(Oc2ccc(NC(=O)Nc3cc(C(C)(C)C)nn3-c3ccc(C)cc3)c3ccccc23)ccn1 [Reference Compound, N-(4-(4-(3-(3-tert-butyl-1-p-tolyl-1H-pyrazol-5-yl)ureido)naphthalen-1-yloxy)pyridin-2-yl)-2-methoxyacetamide, reference compound]
[3]; 50 nM
  number of individual kinase hits, S(1): 7
  number of individual kinase hits, S(10): 32
  number of individual kinase hits, S(35): 67
[3]; 500 nM
  number of individual kinase hits, S(1): 45
  number of individual kinase hits, S(10): 105
  number of individual kinase hits, S(35): 143
[4]
  % β-catenin induction: 100%

## C#Cc1cc(Nc2nccc(Oc3ccc(NC(=O)Nc4cc(C(C)C)nn4-c4ccc(C)cc4)c4ccccc34)n2)cc(C(=O)NCCN2CCOCC2)c1 [Reference Compound B, 3-ethynyl-5-((4-((4-(3-(3-isopropyl-1-(p-toly)-1H-pyrazol-5-yl)ureido)naphthalen-1-yl)oxy)pyrimidin-2-yl)amino)-N-(2-morpholinoethyl)benzamide, reference compound]
[5]; 0 min
  % Parent Remaining: 100%
[5]; 60° C., 300 min
  % Parent Remaining: 82%
[5]; 60° C., 1440 min
  % Parent Remaining: 36%

Source: US8927563B2, “Kinase inhibitor” (Respivert Limited, priority 2013, dated 2015)
